≈ marks a conversion by molar mass, not a printed value.
Experiments:
Assay in all cases: in vitro antibacterial evaluation, MIC by broth dilution
Format in all cases: cell-based
[1] = test system: Enterococcus sp.; details: broth dilution, 18 hours at 35° C.
Outline: (§1)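 Broth dilution per NCCLS standard M7-A2 in Muller-Hinton II […], with an inoculum of 5×10^5 CFU/mL and antibiotic spanning 64-0.06 μg/mL. The MIC is the lowest concentration that inhibits growth of the organism.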

[2] = test system: Escherichia coli; details: 18 hours at 35° C.
Outline: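 Inoculum 5×10^5 CFU/mL; concentrations 64 to 0.06 μg/mL; MIC defined as lowest inhibitory level. Conducted by broth dilution under NCCLS guidelines.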

[3] = test system: Staphylococcus sp.; details: broth dilution, 18 hours at 35° C.
Outline: as §1

[4] = test system: Streptococcus sp.; details: broth dilution, 18 hours at 35° C.
Outline: as §1

- MIC Enterococcus avium (GC 4558) ([1]; Enterococcus avium (GC 4558)): 128 µg/mL (≈ 94.7 µM)
- MIC Enterococcus faecalis (ATCC 29212) ([1]; Enterococcus faecalis (ATCC 29212)): >128 µg/mL
- MIC Enterococcus faecalis (GC 4553) ([1]; Enterococcus faecalis (GC 4553)): >128 µg/mL
- MIC Enterococcus faecalis (GC 4554) ([1]; Enterococcus faecalis (GC 4554)): >128 µg/mL
- MIC Enterococcus faecalis (GC 6189) ([1]; Enterococcus faecalis (GC 6189)): >128 µg/mL
- MIC Enterococcus faecium (GC 2243) ([1]; Enterococcus faecium (GC 2243)): >128 µg/mL
- MIC Enterococcus faecium (GC 4556) ([1]; Enterococcus faecium (GC 4556)): >128 µg/mL
- MIC Enterococcus faecium (GC 4557) ([1]; Enterococcus faecium (GC 4557)): 64 µg/mL (≈ 47.4 µM)
- MIC Enterococcus faecalis (ATCC 29212) ([1]; strain ATCC 29212): >128 µg/mL
- MIC Enterococcus faecalis (GC 2242) ([1]; strain GC 2242): 128 µg/mL (≈ 94.7 µM)
- MIC Enterococcus faecium (GC 2243) ([1]; strain GC 2243): >128 µg/mL
- MIC Enterococcus faecalis (GC 2691) ([1]; strain GC 2691): >128 µg/mL
- MIC Enterococcus faecalis (GC 3059) ([1]; strain GC 3059): >128 µg/mL
- MIC Enterococcus faecalis (GC 4552) ([1]; strain GC 4552): >128 µg/mL
- MIC Enterococcus faecalis (GC 4553) ([1]; strain GC 4553): >128 µg/mL
- MIC Enterococcus faecalis (GC 4554) ([1]; strain GC 4554): >128 µg/mL
- MIC Enterococcus faecium (GC 4556) ([1]; strain GC 4556): >128 µg/mL
- MIC Enterococcus faecium (GC 4557) ([1]; strain GC 4557): 64 µg/mL (≈ 47.4 µM)
- MIC Enterococcus avium (GC 4558) ([1]; strain GC 4558): 128 µg/mL (≈ 94.7 µM)
- MIC Enterococcus faecalis (GC 6189) ([1]; strain GC 6189): >128 µg/mL
- MIC Escherichia coli (ATCC 25922) ([2]; Escherichia coli (ATCC 25922)): 128 µg/mL (≈ 94.7 µM)
- MIC Escherichia coli (GC 4559) ([2]; Escherichia coli (GC 4559)): >128 µg/mL
- MIC Escherichia coli (GC 4560) ([2]; Escherichia coli (GC 4560)): 32 µg/mL (≈ 23.7 µM)
- MIC Coagulase Negative Staphylococcus (GC 4547) [3]: 64 µg/mL (≈ 47.4 µM)
- MIC Coagulase Negative Staphylococcus (GC 4548) [3]: 64 µg/mL (≈ 47.4 µM)
- MIC Coagulase Negative Staphylococcus (GC 4549) [3]: 32 µg/mL (≈ 23.7 µM)
- MIC Coagulase Negative Staphylococcus (GC 4551) [3]: 64 µg/mL (≈ 47.4 µM)
- MIC Staphylococcus aureus (ATCC 29213) [3]: 64 µg/mL (≈ 47.4 µM)
- MIC Staphylococcus aureus (GC 1131) [3]: 64 µg/mL (≈ 47.4 µM)
- MIC Staphylococcus aureus (GC 3051) [3]: 64 µg/mL (≈ 47.4 µM)
- MIC Staphylococcus aureus (GC 3053) [3]: 128 µg/mL (≈ 94.7 µM)
- MIC Staphylococcus aureus (GC 4541) [3]: 64 µg/mL (≈ 47.4 µM)
- MIC Staphylococcus aureus (GC 4542) [3]: 64 µg/mL (≈ 47.4 µM)
- MIC Staphylococcus aureus (GC 4544) [3]: 64 µg/mL (≈ 47.4 µM)
- MIC Staphylococcus aureus (GC 4545) [3]: 64 µg/mL (≈ 47.4 µM)
- MIC Staphylococcus aureus-SMITH (GC 4543) [3]: 64 µg/mL (≈ 47.4 µM)
- MIC Staphylococcus aureus (ATCC 29213) ([3]; strain ATCC 29213): 64 µg/mL (≈ 47.4 µM)
- MIC Staphylococcus aureus (GC 1131) ([3]; strain GC 1131): 64 µg/mL (≈ 47.4 µM)
- MIC Staphylococcus aureus (GC 3051) ([3]; strain GC 3051): 64 µg/mL (≈ 47.4 µM)
- MIC Staphylococcus aureus (GC 3053) ([3]; strain GC 3053): 128 µg/mL (≈ 94.7 µM)
- MIC Staphylococcus aureus (GC 4541) ([3]; strain GC 4541): 64 µg/mL (≈ 47.4 µM)
- MIC Staphylococcus aureus (GC 4542) ([3]; strain GC 4542): 64 µg/mL (≈ 47.4 µM)
- MIC Staphylococcus aureus (GC 4544) ([3]; strain GC 4544): 64 µg/mL (≈ 47.4 µM)
- MIC Staphylococcus aureus (GC 4545) ([3]; strain GC 4545): 64 µg/mL (≈ 47.4 µM)
- MIC Coagulase Negative Staphylococcus (GC 4547) ([3]; strain GC 4547): 64 µg/mL (≈ 47.4 µM)
- MIC Coagulase Negative Staphylococcus (GC 4548) ([3]; strain GC 4548): 64 µg/mL (≈ 47.4 µM)
- MIC Coagulase Negative Staphylococcus (GC 4549) ([3]; strain GC 4549): 32 µg/mL (≈ 23.7 µM)
- MIC Coagulase Negative Staphylococcus (GC 4551) ([3]; strain GC 4551): 64 µg/mL (≈ 47.4 µM)
- MIC Staphylococcus aureus-SMITH (GC 4543) ([3]; strain SMITH GC 4543): 64 µg/mL (≈ 47.4 µM)
- MIC Streptococcus pneumoniae (ATCC 6301) ([4]; strain ATCC 6301): 16 µg/mL (≈ 11.8 µM)
- MIC Streptococcus pneumoniae (GC 1894) ([4]; strain GC 1894): 16 µg/mL (≈ 11.8 µM)
- MIC Streptococcus pyogenes (GC 4563) ([4]; strain GC 4563): 64 µg/mL (≈ 47.4 µM)
- MIC Streptococcus agalactiae (GC 4564) ([4]; strain GC 4564): 64 µg/mL (≈ 47.4 µM)
- MIC Streptococcus pneumoniae (GC 4565) ([4]; strain GC 4565): 16 µg/mL (≈ 11.8 µM)
Structure (SMILES): CC(C)C(=O)OCC1OC(OC2C(CO)OC(Oc3ccc(CC4NC(=O)C(Cc5ccccc5)NC(=O)CNC(=O)C(CO)NC(=O)C(C(O)C5CNC(=N)N5C5OC(CO)C(O)C(O)C5O)NC(=O)C(C(O)C5CNC(=N)N5)NC4=O)cc3)C(O)C2O)C(O)C(O)C1O (centres unmarked) [Example 283a, Cyclo[glycylphenylalanyl-O-[4-O-[6-O-(2-methylpropanoyl)-hexopyranosyl]hexopyranosyl]tyrosyl-3-(2-iminoimidazolidin-4-yl)seryl-3-(3-hexopyranosyl-2-iminoimidazolidin-4-yl)seryliseryl]]
- MIC Staphylococcus haemolyticus (GC 4546) [3]: 64 µg/mL (≈ 47.4 µM)
- MIC Staphylococcus haemolyticus (GC 4546) ([3]; strain GC 4546): 64 µg/mL (≈ 47.4 µM)

From patent publication US6914045B2, “Glycopeptide antibiotics” (Wyeth Holdings Corporation, priority 2001, dated 2005)
